Experimental data published in ChEMBL document CHEMBL1128491, “Flexible 1-[(2-aminoethoxy)alkyl]-3-ar(o)yl(thio)ureas as novel acetylcholinesterase inhibitors. Synthesis and biochemical evaluation” (J Med Chem, 1995).

target: T1, Acetylcholinesterase (Rattus norvegicus, UniProt P37136)
T1 sequence (P37136 whole entry): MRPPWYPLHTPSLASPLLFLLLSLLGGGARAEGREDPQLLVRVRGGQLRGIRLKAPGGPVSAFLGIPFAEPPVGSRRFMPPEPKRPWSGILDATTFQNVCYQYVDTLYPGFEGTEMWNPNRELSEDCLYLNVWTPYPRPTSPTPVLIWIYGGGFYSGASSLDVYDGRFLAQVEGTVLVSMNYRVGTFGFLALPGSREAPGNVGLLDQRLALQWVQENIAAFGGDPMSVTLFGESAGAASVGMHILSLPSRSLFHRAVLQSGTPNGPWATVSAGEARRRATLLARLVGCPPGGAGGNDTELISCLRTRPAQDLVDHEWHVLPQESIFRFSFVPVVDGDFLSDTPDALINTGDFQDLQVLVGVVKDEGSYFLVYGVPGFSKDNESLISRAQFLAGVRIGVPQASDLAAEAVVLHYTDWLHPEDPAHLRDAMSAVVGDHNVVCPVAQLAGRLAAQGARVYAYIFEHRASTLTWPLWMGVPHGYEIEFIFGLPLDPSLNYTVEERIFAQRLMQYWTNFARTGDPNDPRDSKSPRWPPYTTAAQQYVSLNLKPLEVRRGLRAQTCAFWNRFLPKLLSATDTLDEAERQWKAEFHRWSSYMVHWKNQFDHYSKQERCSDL
Description: In vitro inhibitory effect on rat Acetylcholinesterase

Compound | IC50 [nM]
CN(CCOCCNC(=S)NC(=O)c1ccccc1)Cc1ccccc1 | 120
CN(CCOCCNC(=S)NC(=O)C1=CC2C(=O)c3ccccc3C(=O)C2C=C1)Cc1ccccc1 (configuration not stated) | 6
CN(CCOCCNC(=S)NC(=O)c1ccc2c(c1)-c1ccccc1C2=O)Cc1ccccc1 | 30
CN(CCOCCNC(=S)Nc1ccc(OC(F)(F)F)cc1)Cc1ccccc1 | 1000
CN(CCOCCCNC(=S)NC(=O)c1ccccc1)Cc1ccccc1 | 1100
CN(CCOCCNC(=S)NC(=O)c1ccc(-c2ccccc2)cc1)Cc1ccccc1 | 230
CN(CCOCCNC(=S)NC(=O)c1ccc(Cl)c(Cl)c1)Cc1ccccc1 | 55
Cc1ccc(C(=O)NC(=S)NCCOCCN(C)Cc2ccccc2)cc1 | 77
CN(CCOCCNC(=S)NC(=O)c1ccccc1)C1CCCCC1 | 13
COc1ccc(NC(=S)NCCOCCN(C)Cc2cccc([N+](=O)[O-])c2)cc1OC | 1500
CCN(CCOCCNC(=O)NCc1ccccc1)CC1CCCCC1 | > 10000
CN(CCOCCNC(=S)Nc1cccc2ccccc12)Cc1ccccc1 | > 10000
CN(CCOCCNC(S)=NC(=O)c1cccc([N+](=O)[O-])c1)Cc1ccccc1 | 15
COc1ccc(C(=O)NC(=S)NCCOCCN(C)Cc2ccccc2)cc1 | 26
CN(CCOCCNC(=O)Nc1ccc([N+](=O)[O-])cc1)Cc1ccccc1 | 2300
CN(CCOCCNC(=S)NC1CCCCC1)Cc1ccccc1 | 1400
CN(CCOCC/N=C(\S)Nc1cccnc1)Cc1ccccc1 | 4000
